Experiment [1] deals with AMPK alpha2/beta2/gamma3 (Homo sapiens) (UniProt P54646+O43741+Q9UGI9). Put plainly: Activation of human AMPK alpha2/beta2/gamma3 transiently transfected in HEK293 cells assessed as phosphorylation at […]Thr172 by measuring asymptotic max incubated for 20 mins by AlphaLISA assay relative to control. The experiment is classed as cell-based.
The target in a further experiment is AMPK alpha2/beta2/gamma3 (Homo sapiens, UniProt O43741+P54646+Q9UGI9). Description: Activation of human AMPK (alpha2/beta2/gamma3) transiently transfected in HEK293 cells assessed as phosphorylation at […]Thr172 incubated for 20 mins by AlphaLISA assay. Format: cell-based.
Sequence of AMPK alpha2/beta2/gamma3 (P54646 whole entry): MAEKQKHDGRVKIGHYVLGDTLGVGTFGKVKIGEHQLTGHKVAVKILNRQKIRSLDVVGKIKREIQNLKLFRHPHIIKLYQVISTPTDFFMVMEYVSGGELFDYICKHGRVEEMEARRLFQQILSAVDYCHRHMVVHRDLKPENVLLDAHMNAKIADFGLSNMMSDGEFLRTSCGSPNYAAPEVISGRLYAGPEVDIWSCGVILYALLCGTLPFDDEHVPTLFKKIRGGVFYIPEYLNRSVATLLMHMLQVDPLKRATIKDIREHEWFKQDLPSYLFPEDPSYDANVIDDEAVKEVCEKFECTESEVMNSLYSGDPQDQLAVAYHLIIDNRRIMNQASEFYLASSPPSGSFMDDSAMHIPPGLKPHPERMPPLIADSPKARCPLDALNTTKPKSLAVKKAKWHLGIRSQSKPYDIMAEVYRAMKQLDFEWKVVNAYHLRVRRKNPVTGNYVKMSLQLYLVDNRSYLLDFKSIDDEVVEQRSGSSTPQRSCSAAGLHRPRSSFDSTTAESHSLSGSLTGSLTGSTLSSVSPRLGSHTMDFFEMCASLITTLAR
Sequence of AMPK alpha2/beta2/gamma3 (O43741 whole entry): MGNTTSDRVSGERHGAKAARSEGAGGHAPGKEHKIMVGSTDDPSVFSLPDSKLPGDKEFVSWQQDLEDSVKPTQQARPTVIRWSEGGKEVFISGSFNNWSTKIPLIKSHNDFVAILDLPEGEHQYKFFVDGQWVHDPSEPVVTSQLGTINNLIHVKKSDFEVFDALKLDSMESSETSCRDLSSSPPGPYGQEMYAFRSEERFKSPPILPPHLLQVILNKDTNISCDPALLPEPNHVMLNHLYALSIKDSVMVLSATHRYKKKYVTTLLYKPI
Sequence of AMPK alpha2/beta2/gamma3 (Q9UGI9 whole entry): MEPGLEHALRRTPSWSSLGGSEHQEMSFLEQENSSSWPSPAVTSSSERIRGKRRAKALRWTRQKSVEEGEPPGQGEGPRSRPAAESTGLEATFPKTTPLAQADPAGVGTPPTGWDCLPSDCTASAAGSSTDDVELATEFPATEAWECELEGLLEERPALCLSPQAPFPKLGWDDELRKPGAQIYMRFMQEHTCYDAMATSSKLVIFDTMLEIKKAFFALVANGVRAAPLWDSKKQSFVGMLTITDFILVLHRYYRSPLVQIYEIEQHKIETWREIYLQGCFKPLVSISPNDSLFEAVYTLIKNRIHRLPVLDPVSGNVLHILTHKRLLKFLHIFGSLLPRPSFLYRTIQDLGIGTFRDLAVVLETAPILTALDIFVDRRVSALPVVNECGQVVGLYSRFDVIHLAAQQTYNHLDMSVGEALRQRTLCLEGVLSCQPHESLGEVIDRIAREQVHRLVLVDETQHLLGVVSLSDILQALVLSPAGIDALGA

Sequence of AMPK alpha2/beta2/gamma3 (Homo sapiens) (O43741 whole entry, looked up): as the sequence (O43741 whole entry) above
Sequence of AMPK alpha2/beta2/gamma3 (Homo sapiens) (P54646 whole entry, looked up): as the sequence (P54646 whole entry) above
Sequence of AMPK alpha2/beta2/gamma3 (Homo sapiens) (Q9UGI9 whole entry, looked up): as the sequence (Q9UGI9 whole entry) above

Turning to `Cn1cc(F)c(N2C[C@](C)(c3cccc(Cl)c3F)c3c(cnc(NC4CN(C(=O)C5CCC(F)(F)CN5)C4)c3F)C2=O)n1` (some centres not stated), the max activation in experiment [1] (filed as activator) was 85.5%.
Still for that read-out and setting: the value for `Cn1cc(F)c(N2C[C@](C)(c3cccc(Cl)c3F)c3c(cnc(NC4CN(C(=O)C(O)CC(F)(F)F)C4)c3F)C2=O)n1` (some centres not stated) was 100%; that for `Cn1cc(F)c(N2C[C@](C)(c3cccc(Cl)c3F)c3c(cnc(NC4CN(C(=O)CC(F)(F)F)C4)c3F)C2=O)n1` was 90%; that for `Cn1cc(F)c(N2CC(C)(c3cccc(Cl)c3F)c3c(cnc(N[C@@H]4CCN(C(=O)N5C[C@@H]6C[C@H]5CO6)C4)c3F)C2=O)n1` (some centres not stated) was 52.2%.
`Cn1cc(F)c(N2CC(C)(c3cccc(Cl)c3F)c3c(cnc(NC4CN([C@H]5CCCNC5=O)C4)c3F)C2=O)n1` (some centres not stated): the max activation in experiment [1] (filed as activator) worked out at 119%. For the same molecule, the EC50 at AMPK alpha2/beta2/gamma3 came to 27.2 nM.
As to `C[C@]1(c2cccc(Cl)c2F)CN(c2ncccc2F)C(=O)c2cnc(NC3CN(C(=O)C4(O)CC4)C3)c(F)c21`, in experiment [1] (filed as activator), the max activation amounted to 112%.
As for `C[C@]1(c2cccc(Cl)c2F)CN(c2ccc([C@@H]3COCCN3)cn2)C(=O)c2cnc(NC3CN(C(=O)c4cccnn4)C3)c(F)c21`, the max activation in experiment [1] (filed as activator) stood at 120%.
Same read-out and setting: the value for `Cn1cc(F)c(N2C[C@](C)(c3cccc(Cl)c3F)c3c(cnc(NC4CN(C(=O)[C@@H]5C[C@@H]5F)C4)c3F)C2=O)n1` was 81.7%; that for `CN1CCCC(N2CC(Nc3ncc4c(c3F)[C@@](C)(c3cccc(Cl)c3F)CN(c3nn(C)cc3F)C4=O)C2)C1=O` (some centres not stated) was 139%.
For `Cn1cc(F)c(N2C[C@](C)(c3cccc(Cl)c3F)c3c(cnc(NC4CN(C(=O)[C@@](C)(O)C5CC5)C4)c3F)C2=O)n1`, in experiment [1] (filed as activator), the max activation is 89.6%. The EC50 on AMPK alpha2/beta2/gamma3 is 21.3 nM.
Consider `CC1(c2ccc(F)c(Cl)c2F)CN(c2ccc(CO)cn2)C(=O)c2cnc(NC3CN(C(=O)N4C[C@@H]5C[C@H]4CO5)C3)c(F)c21` (some centres not stated), for which, in experiment [1] (filed as activator), the max activation amounted to 113%.
In the case of `CNCc1ccc(N2C[C@](C)(c3cccc(Cl)c3F)c3nc(NC4CN(C(=O)[C@@H]5C[C@@H]5F)C4)ncc3C2=O)cc1F`, the max activation in experiment [1] (filed as activator) was 154%. The EC50 at AMPK alpha2/beta2/gamma3 amounted to 2500 nM.
For `C[C@]1(c2cccc(Cl)c2F)CN(c2cc(OC(F)F)ccn2)C(=O)c2cnc(NC3CN(C(=O)[C@@H]4C[C@@H]4F)C3)c(F)c21`, the max activation in experiment [1] worked out at 30.9%.
With `CC1(c2cccc(Cl)c2F)CN(c2ncccc2F)C(=O)c2cnc(NC3CN(C(=O)N4CCC[C@@H]4CO)C3)nc21` (some centres not stated), the max activation in experiment [1] (filed as activator) came to 106%.

These data come from ChEMBL document CHEMBL6103606, “AMP-Activated Protein Kinase Activators as Therapeutic Targets To Treat Heart Failure and Diseases That Can Benefit from Improved Muscular Performance” (ACS Med Chem Lett, 2025).
